From PMC6801902, “Directed Evolution of Clostridium thermocellum β-Glucosidase A Towards Enhanced Thermostability” (International Journal of Molecular Sciences, 2019)

Legend:
[1] = biological target: C. thermocellum BglA (β-glucosidase A, Clo1313_2020) (Acetivibrio thermocellus, UniProt P26208); assay: continuous p-nitrophenol release at OD405, nonlinear fit (GraphPad Prism); assay type: biochemical; settings: 50 mM citrate buffer pH 6.1, 60 °C, 0-25 mM pNPG, 13 nM enzyme; read-out: Wild Type
Description: (§1) continuous p-nitrophenol release at OD405, nonlinear fit (GraphPad Prism) on C. thermocellum BglA (β-glucosidase A, Clo1313_2020)

[2] = biological target: C. thermocellum BglA (β-glucosidase A, Clo1313_2020) (Acetivibrio thermocellus, UniProt P26208, A17S/K268N, form not given); assay: as above; assay type: biochemical; settings: 50 mM citrate buffer pH 6.1, 60 °C, 0-25 mM pNPG, 13 nM enzyme; thermostable mutant Mut 1
Description: as §1

Sequence of C. thermocellum BglA (β-glucosidase A, Clo1313_2020) (Acetivibrio thermocellus, UniProt P26208) (P26208 whole entry): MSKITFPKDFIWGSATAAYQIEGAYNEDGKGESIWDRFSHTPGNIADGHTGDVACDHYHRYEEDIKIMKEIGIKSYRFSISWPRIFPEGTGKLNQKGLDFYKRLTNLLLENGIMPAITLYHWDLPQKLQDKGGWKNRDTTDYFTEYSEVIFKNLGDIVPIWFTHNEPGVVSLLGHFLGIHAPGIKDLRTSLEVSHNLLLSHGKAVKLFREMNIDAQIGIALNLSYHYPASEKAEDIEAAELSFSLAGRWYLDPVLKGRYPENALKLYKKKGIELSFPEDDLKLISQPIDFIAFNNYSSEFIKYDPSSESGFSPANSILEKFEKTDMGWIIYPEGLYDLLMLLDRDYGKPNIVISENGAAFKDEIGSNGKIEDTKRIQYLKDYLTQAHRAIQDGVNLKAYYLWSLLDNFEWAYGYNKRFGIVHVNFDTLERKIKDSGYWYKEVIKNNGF
Sequence of C. thermocellum BglA (β-glucosidase A, Clo1313_2020) (Acetivibrio thermocellus, UniProt P26208, A17S/K268N, form not given) (P26208 whole entry A17S/K268N, form open): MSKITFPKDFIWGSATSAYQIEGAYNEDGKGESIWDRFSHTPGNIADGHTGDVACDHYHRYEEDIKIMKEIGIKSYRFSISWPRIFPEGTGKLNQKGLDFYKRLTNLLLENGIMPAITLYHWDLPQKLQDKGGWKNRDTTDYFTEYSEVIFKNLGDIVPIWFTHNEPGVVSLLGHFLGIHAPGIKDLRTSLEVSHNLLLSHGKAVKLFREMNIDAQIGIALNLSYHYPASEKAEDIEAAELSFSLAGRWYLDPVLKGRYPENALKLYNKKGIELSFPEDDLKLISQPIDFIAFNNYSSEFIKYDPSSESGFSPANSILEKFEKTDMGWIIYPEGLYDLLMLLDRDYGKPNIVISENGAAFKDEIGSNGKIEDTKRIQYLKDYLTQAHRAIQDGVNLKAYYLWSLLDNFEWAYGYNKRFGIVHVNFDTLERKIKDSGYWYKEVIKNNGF

Km [1]: 6.7 ± 1.11 mM | Km [2]: 5 ± 0.59 mM
SMILES: O=[N+]([O-])c1ccc(O[C@@H]2O[C@H](CO)[C@@H](O)[C@H](O)[C@H]2O)cc1 [pNPG, p-nitrophenyl-β-D-glucopyranoside]
